# Assays:
# [1] = Time-dependent NO release in PBS of different pH (Sievers NOA 280i chemiluminescence); type: physicochemical
# From the text: FIGS. 1A and 1B are schemes illustrating how DM1-NO encapsulated PLGA-b-PEG nanoparticles (DM1-NO-NPs) can accumulate in tumors through the EPR effect. In the presence of radiation and/or reduced pH in endosomes/lysosomes, the S—N bond was broken, releasing DM1 and NO. DM1 inhibits microtubule assembly, arresting cells at the more radiosensitive G2/M phase. Meanwhile, NO can react with ROS to form radicals such as peroxynitrites, causing DNA and lipid damages. The combined effects enhance the efficacy of RT. […] Quantification was based on Greiss assay. PBS, cell culture medium (RPBI-1640), DM1, and DM1-NPs were tested as controls. FIG. 1D is a histogram showing the results of DLS analysis of DM1-NO-NPs in water. FIG. 1E is a plot showing the zeta potential of DM1-NO-NPs in water. FIG. 1F is a bar graph illustrating the stability of DM1-NO under ambient conditions. After synthesis, dry product of DM1-NO was kept at room temperature and the total amount of remaining NO was quantified using Griess assay on Day 0, 7, 14, and 21. FIG. 1G is plot illustrating the stability of DM1-NO in solutions. DM1-NO (20.09 μmol) was dissolved in PBS of different pH (5.5, 6.5, and 7.4). Time-dependent NO release was measured on a Sievers NOA 280i system, which assesses NO based on gas phase chemiluminescent reaction between NO and ozone. FIG. 1H is a line graph showing release profiles for DM1-NO-NPs, tested in PBS of different pH at 37° C. by Greiss assays. FIG. 1I is a histogram showing the results of DLS analysis of DM1-NPs. FIG. 1J is a plot showing the zeta potential of DM1-NPs. FIG. 1K is a series of representative images of clonogenic assays. H1299 cells were treated with 20 nM of DM1 and DM1-NO for 12 h, followed −X-ray irradiation (6 Gy). The resulting cells were plated for clonogenic assays. FIG. 1L is a plot showing UV-vis analysis of DM1-NO, PLGA-b-PEG and DM1-NO-NPs. FIG. 1M is a plot showing FT-IR analysis of DM1-NO, PLGA-b-PEG and DM1-NO-NPs. FIG. 1N is a plot showing the results of DLS analysis (hydrodynamic size) over time for DM1-NO-NPs that were incubated in PBS for 24 h.
# DM1-NO was stable under ambient conditions in the powder form. According to Griess assay, less than 10% of the compound was degraded over 2 weeks' storage at room temperature (FIG. 1F). […] (FIG. 1G), and the degradation was accelerated at low pH (e.g. pH 6.5 or 5.5, FIG. 1G, Table 1), and under X-ray irradiation (FIG. 1C).
# H1299 cells [2] = experiment: MTT cell viability assay, 72 h, without RT; type: cell-based, human; conditions: Homo sapiens, NCI-H1299
# Method: The viability of the H1299 cells after different treatments was measured by (4,5-dimethythiazon-2-yl)-2,5-diphenyl tetrazolium bromide (MTT) assay using an Infinite M200 microplate reader (BioTek's Synergy™ Mx, USA). Around 3×10^3 cells per well were seeded into a 96-well plate and cultured overnight until the cells fully adhered to the bottom of the plate. The cells were treated with different treatment groups, including free drugs (DM1 and DM1-NO), and drug loaded nanoparticles (DM1-NPs and DM1-NO-NPs) for 72 h. […] After that MTT reagent (in 20 μL PBS, 5 mg/mL) was added to each well. The cells were further incubated for 4 h at 37° C. The medium in each well was then removed and replaced by 100 μL DMSO. The plate was gently shake for 5 min (instrument setup) to dissolve the formazan crystals, and the absorbance at 570 nm was recorded by a microplate reader. Each experiment condition was run three times and the data were shown as the mean value plus a standard deviation (±SD).
# H1299 cells [3] = experiment: Clonogenic assay with X-ray irradiation, linear-quadratic model; type: cell-based, human
# Method: Around 3×10^5 of H1299 cells were plated in a series of 25 mm petri dishes in 5 mL of complete RMPI-1640 medium, and the cells were incubated for 24 h at 37° C. Once the cells were completely adhered to the bottom of the plate, the media was replaced with fresh RPMI-1640 containing DM1 or DM1-NO with a final concentration of 20 nM. After another 12 h of incubation, the cell cultures were irradiated by X-rays (320 kV) of different doses Immediately following the X-ray irradiation, the cell monolayers were trypsinized using 0.05% Trypsin/EDTA (Gibco, Life Technologies, USA). Single cells were collected and plated onto a 25 mm petri dish in 5 mL complete media (FIG. 1K). Each dish was then incubated for 21 days to allow colonies to form. After that, the media was removed and 0.5% crystal violet in 70% methanol was used to fixed and stain the existing colonies. The plates were sufficiently and carefully rinsed, and were dried at room temperature. Once dried, the colonies were counted manually under a microscope. When observed under the microscope, colonies of […] were said to be surviving colonies. The survival rate of these colonies was normalized to the plating efficiency of the untreated control cells. The mean and standard deviation of surviving colonies in each treatment group was calculated.
# The potential of DM1-NO as a radiosensitizer was assessed by clonogenic assays. Briefly, DM1 or DM1-NO was incubated with H1299 cells, the cells were irradiated with X-rays (0-10 Gy), and the resulting cells were seeded onto a petri dish (FIG. 1K). Colonies consisting more than 50 cells after 3 weeks were counted, and the data fit to a linear-quadratic model (Table 3).
# H1299 cells [4] = experiment: Superoxide dismutase (SOD) assay, cytosolic and mitochondrial; type: cell-based, human; conditions: +RT (6 Gy), 20 nM, compared to DM1+RT
# Method: Around 3×10^4 cells per well were seeded into each well of a six-well plate and cultured overnight. The cells treated with free drug (DM1 and DM1-NO), and drug loaded nanoparticles (DM1-NPs and DM1-NO-NPs) were given the same concentration of drug (20 nM) and irradiated with 6 Gy of radiation. The plates were then incubated for 24 h. After the treatment, the cells were rinsed with PBS, and the cell pellets were collected using a cell scraper. Cells were homogenized using a sonicator in ice-cold 20 mM 4-(2-hydroxyethyl)-1-piperazineethanesulfonic acid (HEPS) buffer (pH 7.2, containing 1 mM of ethylene glycol-bis(β-aminoethyl ether)-N,N,N′,N′-tetraacetic acid, also known as EGTA; Millipore Sigma, USA), […] of mannitol, and 70 mM sucrose. Following homogenization, a pellet was formed by centrifugation at 15,000×g for 15 minutes at 4° C. The supernatant was collected, and an assay was immediately performed to assess cytosolic SOD levels by comparing to a standard curve. To measure mitochondrial SOD levels, the pellet was resuspended in ice-cold PBS, and the sample was measured accordingly.
compound,measurement,setting,value
COc1cc2cc(c1Cl)N(C)C(=O)C[C@@H](OC(=O)[C@H](C)N(C)C(=O)CCSN=O)[C@]1(C)OC1[C@H](C)[C@@H]1C[C@@](O)(NC(=O)O1)[C@H](OC)/C=C\C=C(/C)C2 (some centres unmarked) [DM1-NO],degradation in solution,"[1]; PBS at 37° C., accelerated at low pH and under X-ray",gradually broke down
same,Average NO Release (per μL of sample),[1]; PBS pH 5.5,1.29E−07 μmol NO/min
same,Average NO Release (per μL of sample),[1]; PBS pH 6.5,7.81E−08 μmol NO/min
same,Average NO Release (per μL of sample),[1]; PBS pH 7.4,7.83E−08 μmol NO/min
same,IC50,H1299 cells [2],25.9 nM
same,D10 (radiation dose at 10% fractional survival),"H1299 cells [3]; 20 nM, 12 h, X-rays 0-10 Gy",4.39 Gy
same,α (linear quadratic model best fit value),"H1299 cells [3]; 20 nM, 12 h, X-rays 0-10 Gy",0.0765
same,β (linear quadratic model best fit value),"H1299 cells [3]; 20 nM, 12 h, X-rays 0-10 Gy",0.0051
same,dose modifying factor at 10% factional survival (DMF10),H1299 cells [3]; relative to RT alone,1.23
same,increase of cytosol SOD activity,H1299 cells [4],70.08%
same,increase of mitochondrial SOD activity,H1299 cells [4],24.36%

# — patent US12570704B2, “Functionally modified maytansinoids and compositions and methods of use thereof” (University of Georgia Research Foundation, Inc., priority 2019, dated 2026)
